These results are taken from patent US20260297508A1, “MODULATORS OF PROTEIN SECRETION” (SANOFI, priority 2023, published 2026).

The test system of one series is NLRP3. As to conditions: cited from earlier work.
The test system of series [1] is biotin-induced antibody release, U2OS clone #7 cells. As to the kind of experiment: High-throughput RUSH screen: biotin-induced cytoplasmic GFP signal decay (antibody release), U2OS clone #7. Format: cell-based, human. As to conditions: for inhibition of the biotin-induced decrease of the GFP signal: 4 h compound, then 40 μM biotin 1 h, screening; for retention of the RUSH antibody in the cytoplasm: screening campaigns, summary. The procedure: FIGS. 4A-4C show the high-throughput screening of chemical compound libraries for the identification of modulators of protein secretion. […] U2OS clone #7 is plated in 384-well plates and incubated for 24 h before treatment with each compound of the Prestwick, ICCB Known Bioactives, or Autophagy Compound Library at 2 concentrations, low and high (with a 10-fold difference). […] The results of the Prestwick library screening at the low drug concentration are plotted. Brefeldin A was used as a positive control of the inhibition of secretion. The compounds causing a cytoplasmic GFP intensity below that observed for biotin-only treated cells are potential enhancers of protein secretion.
U2OS cells were transfected with the streptavidin-KDEL plasmid using Lipofectamine 2000 (Thermo Fisher Scientific) and selected in medium supplemented with G418 (400 μg/mL, Gibco-Invitrogen) for 2 weeks. Limiting dilution in 96-well plates was used for single cell isolation from the selected pool. Clones were amplified and selected based on streptavidin immunofluorescence. Clone #BD6 showing the highest streptavidin expression was further expanded in medium supplemented with G418 (200 μg/mL) and transfected with the anti-PD-L1 IgG RUSH plasmid using Lipofectamine 2000 and selected in medium supplemented with G418 (200 μg/mL) and hygromycin (100 μg/mL, Santa Cruz Biotechnology) for 2 weeks. Limiting dilution in 96-well plates was used for single cell isolation from clone #BD6-derived selected pool. Clones were amplified and selected based on GFP fluorescence and clone #7 was selected for further characterization and screening campaigns.
U2OS clone #7 cells were seeded in black 384-well imaging plates (Greiner bio one), 2,000 cells/well, and incubated for 24 h at 37° C. in a humidified incubator with 5% CO2. Cells were treated on the next day with the compounds from either the Prestwick library at […], the ICCB Known Bioactives library at 1/100^e or 1/1000^e, or the autophagy compound library at 10 μM or 1 μM for 4 h. […] Cells were then fixed as described above and processed for subsequent automated image acquisition using a robot-assisted IXM XL BioImager (Molecular Devices, Sunnyvale, CA, USA) equipped with a Sola light source (Lumencor, Beaverton, OR, USA), adapted excitation and emission filters (Semrock) a 16-bit monochrome sCMOS PCO.edge 5.5 camera (PCO, Kelheim, Germany). A 20× PlanAPO objective (Nikon, Tokyo, Japan) was used to acquire a minimum of 4 view fields in each well. The acquired images were processed using the open-access R software (https://www.r-project.org) with the help of freely available packages EBImage (available on the Bioconductor repository https://www.bioconductor.org), and RBioFormats (https://github.com/aoles/RBioFormats), and the custom packages MetaxpR (https://github.com/asauvat/MetaxpR) and MorphR (https://github.com/kroemerlab/MorphR). Nuclei were first detected using Hoechst 33342 signal and used as a marker to detect cytoplasmic areas based on GFP signal, allowing for the evaluation of cytoplasmic GFP intensity. Data were thereafter extracted and statistically evaluated using R (https://www.r-project.org). Data were normalized using negative and positive controls, reduced and transformed into a Z-score. The experiments were repeated manually at low scale with selected drugs to confirm their effects on secretion, in this second set of assays, U2OS clone #7 cells incubated with secretion inhibitors were fixed and stained with Hoechst as described above for imaging and viability determination based on cell counts.
We next sought to use clone #7 in screening campaigns for the identification of drugs capable of enhancing or inhibiting antibody secretion. […] Cell counting was facilitated by nuclear counterstaining with Hoechst 33324 in order to assess viability and distinguish drug effects on the secretion kinetics from direct cytotoxicity and select relevant drugs for further characterization. […]

The subject of series [2] is RUSH antibody secretion, U2OS clone #7 cells. As to the kind of experiment: ELISA on immobilized PD-L1: RUSH antibody titer in supernatant of treated clone #7 cells. Format: cell-based, human. As to conditions: 50 μg/mL; for inhibition of antibody secretion, validation: summary; for suppression of antibody secretion compared with brefeldin A: 4 h compound, biotin 30 min, FIG. 7A. The procedure:
(§1) FIGS. 7A and 7B show validation of inhibitors of protein secretion. […] Clone #7 cells were treated with the indicated compounds and supernatants were assayed for PD-L1 binding. Brefeldin A was used as a protein secretion inhibitor positive control. […] Hoechst 33324 fluorescence was measured, which enabled to number adherent living cells in each well.
U2OS clone #7 cells were seeded in 6-well plates and kept for 24 h at 37° C. in a humidified incubator with 5% CO2. The next day, the supernatants were removed, cells were rinsed with 37° C. pre-heated PBS and new medium containing the chemical treatment was added for 4 h. […] Then supernatants were collected and used for the ELISA assay as follows. MaxiSorp 96-well plates (Thermo Fisher Scientific) were coated with 0.5 μg/mL hFc-human-PD-L1 (R&D Systems, Minneapolis, MN) in PBS for 5.5 h at RT. Coating solution was then removed and 2% BSA/PBS blocking solution was added overnight at 4° C. The next day, wells were washed 3 times with 0.5% BSA/0.05% Tween-20/PBS solution. Supernatants were added after a ⅓ dilution in 0.5% BSA/0.05% Tween-20/PBS, for 2.3 h at RT. Wells were washed 3 times with 0.5% BSA/0.05% Tween-20/PBS solution. Anti-human kappa light chain HRP-coupled antibody was added diluted in 0.5% BSA/0.05% Tween-20/PBS at 1/4000^e for 2.3 h at RT. Wells were washed 3 times with 0.5% BSA/0.05% Tween-20/PBS solution before incubation with substrate reagents pack (R&D Systems) for 15 min in the dark. Fifty μL of STOP solution (R&D Systems) were then added to each well and the absorbance in each well was subsequently measured at 450 nm, and 635 nm for background subtraction, using a VICTOR™ X4 (PerkinElmer, Waltham, MA).
Medium- and high-throughput screenings often yield false positive and negative hits, calling for independent validation in low-throughput experiments with orthogonal technologies. In a first round of experiments, we evaluated the effects of shortlisted compounds with potential antibody secretion enhancer activity. Compounds identified in the screening campaigns were tested again on clone #7 at a low concentration (FIG. 6A) or a ten-fold higher concentration (FIG. 6B) for their ability to increase antibody secretion. […] We further characterized these hits in an PD-L1 binding ELISA.

In another series the test system is eryptosis; apoptosis. As to conditions: cited from earlier work.
For series [3], the system named is biotin-induced antibody release, U2OS clone #7 cells. Briefly: Low-throughput validation by imaging of the biotin-induced antibody release (cytoplasmic GFP), clone #7. Format: cell-based, human. As to conditions: FIG. 5C. The procedure: FIGS. 5A-5C show selection of potential enhancers of protein secretion. FIGS. 5A and 5B) show dot plot representations of drugs efficiency based on their Z-scores measured at low and high drug concentration (FIG. 5A, Prestwick library; FIG. 5B, ICCB Known Bioactives and TargetMol Autophagy libraries). Compounds selected for further characterization are listed. (FIG. 5C) Clone #7 was treated with the indicated compounds, fixed and analyzed as described in FIG. 4A legend.
FIG. 6A-6C show validation of enhancers of protein secretion.
(§2) U2OS clone #7 cells were seeded in black 384-well imaging plates (Greiner bio one), 2,000 cells/well, and incubated for 24 h at 37° C. in a humidified incubator with 5% CO2. Cells were treated on the next day with the compounds from either the Prestwick library at […], the ICCB Known Bioactives library at 1/100^e or 1/1000^e, or the autophagy compound library at 10 μM or 1 μM for 4 h. […] Cells were then fixed as described above and processed for subsequent automated image acquisition using a robot-assisted IXM XL BioImager (Molecular Devices, Sunnyvale, CA, USA) equipped with a Sola light source (Lumencor, Beaverton, OR, USA), adapted excitation and emission filters (Semrock) a 16-bit monochrome sCMOS PCO.edge 5.5 camera (PCO, Kelheim, Germany). A 20× PlanAPO objective (Nikon, Tokyo, Japan) was used to acquire a minimum of 4 view fields in each well. […] Nuclei were first detected using Hoechst 33342 signal and used as a marker to detect cytoplasmic areas based on GFP signal, allowing for the evaluation of cytoplasmic GFP intensity. Data were thereafter extracted and statistically evaluated using R (https://www.r-project.org). […]
Medium- and high-throughput screenings often yield false positive and negative hits, calling for independent validation in low-throughput experiments with orthogonal technologies. In a first round of experiments, we evaluated the effects of shortlisted compounds with potential antibody secretion enhancer activity. […]

Another series relates to U2OS clone #7 cells. As to the kind of experiment: Toxicity assay: Hoechst staining, number of adherent living cells. Format: cell-based, human. As to conditions: 50 μg/mL; FIG. 7B. The procedure: as §1
as §2, with “Germany).” for “Germany). A 20× PlanAPO objective (Nikon, Tokyo, Japan) was used to acquire a minimum of 4 view fields in each well.”

Another series has as its system TrKA. The conditions noted are these: cited from earlier work.
The next series concerns the target tyrosine kinase. As to conditions: tyrosine kinase inhibitor; cited from earlier work.
A further series relates to ErbB2 tyrosine kinase. The conditions noted are these: ErbB2 vs EGFR; cited from earlier work.
The next series has as its system TrKB. The conditions noted are these: cited from earlier work.
Another series deals with TrKC. As to conditions: cited from earlier work.

On to `CO[C@@H]1C[C@@H](C[C@H]2CC[C@H](C)[C@H]([C@@H](C)C(=O)O)O2)O[C@]2(O[C@](C)([C@H]3CC[C@@](C)([C@@H]4O[C@@H]([C@H]5O[C@@](O)(CO)[C@H](C)C[C@@H]5C)C[C@@H]4C)O3)C[C@H]2C)[C@@H]1C` [nigericin], for which the “NLRP3 activation, release of IL-1β” value in the series on NLRP3 is listed as “leading to the release of IL-1β”. In addition, in series [1], the “inhibition of the biotin-induced decrease of the GFP signal” value was “inhibited the biotin-induced cytoplasmic GFP signal decay” and the “retention of the RUSH antibody in the cytoplasm” value was “caused the retention of the RUSH antibody in the cytoplasm”. In addition, in series [2], the “inhibition of antibody secretion, validation” value is on record as “confirmed as a secretion inhibitor” and the “suppression of antibody secretion compared with brefeldin A” value is listed as “as potent as brefeldin A in suppressing antibody secretion”. Also, in the series on eryptosis; apoptosis, the apoptosis result is given as “triggers apoptosis” and the eryptosis entry is given as “promote eryptosis”. Moreover, the “effect on secretion by cell imaging” value in series [3] is on record as “inhibitory effect”. The cellular viability entry with U2OS clone #7 cells is listed as “without affecting cellular viability”.

For orientation: IC50 means the concentration that inhibits the measured activity by half. As to `CC(C)(C)c1cc(/C=C(\C#N)C(N)=S)cc(C(C)(C)C)c1O` [tyrphostin AG-879], the “inhibition of TrKA phosphorylation” value with TrKA was “effectively inhibits TrKA phosphorylation”. For the same compound, the IC50 at tyrosine kinase is 10 µM. Moreover, the “specificity to ErbB2 over EGFR” value in the series with ErbB2 tyrosine kinase is given as “at least 500 fold”. Moreover, in [1], the “inhibition of the biotin-induced decrease of the GFP signal” value is recorded as “inhibited the biotin-induced cytoplasmic GFP signal decay” and the “retention of the RUSH antibody in the cytoplasm” value is “caused the retention of the RUSH antibody in the cytoplasm”. In series [2], the “inhibition of antibody secretion, validation” value is “validated as an inhibitor of antibody secretion” and the “suppression of antibody secretion compared with brefeldin A” value is recorded as “as potent as brefeldin A in suppressing antibody secretion”. Further, the “inhibitory effect on TrKB” value with TrKB is recorded as “no inhibitory effect”. Moreover, in the series on TrKC, the “inhibitory effect on TrKC” value was “no inhibitory effect”. Besides, in [3], the “effect on secretion by cell imaging” value was “inhibitory effect”. In the series with U2OS clone #7 cells, the cellular viability entry is reported as “without affecting cellular viability”.
